In patent US5047397A, “Linear analogs of atrial natriuretic peptides” (California Biotechnology Inc., priority 1988, dated 1991):
*1 amine or outer side, *2 acyl side, *3 side chain or, on linkers, in order; H or OH if unused. Where a SMILES comes first, the peptide text is derived from it. Bridges are numbered along the chain shown (N, C = ends). Where no end group is shown, it is not given here. [ ]: non-standard residue; d: D form. The star is where a group is joined. Acetyl(2-naphthyloxy) = O=C(COc1ccc2ccccc2c1)*; Dibenzylacetyl = O=C(C(Cc1ccccc1)Cc1ccccc1)*; Acetyl(2-naphthyl) = O=C(Cc1ccc2ccccc2c1)*; NH(2S-methylbutyl) = CC[C@H](C)CN*; 2Naphthoyl = O=C(c1ccc2ccccc2c1)*; X1 = O=C(Cc1ccc(N[*:1])cc1)[*:2]; Orn = NCCC[C@H](N)C(=O)O; X6 = O=C(C(Br)c1ccccc1)*; Inp = O=C(O)C1CCNCC1; Ahx = NCCCCCC(=O)O; Sar = CNCC(=O)O

target: T1, specific ANP receptor sites on BASM or BAE cells (Bos taurus, UniProt P10730); test: Competitive displacement receptor binding of (125I)-rANP(126-150) on cultured cells; set-up: species or system bovine; conditions: concentration of unlabeled peptide displacing 50% of maximal binding of 0.5 nM (125I)-rANP(126-150); BASM or BAE cells
T1 construct: specific receptor sites on BASM or BAE cells; endogenous in cells; host or cells: cultured BASM and BAE cells
T1 sequence (P10730 42-537): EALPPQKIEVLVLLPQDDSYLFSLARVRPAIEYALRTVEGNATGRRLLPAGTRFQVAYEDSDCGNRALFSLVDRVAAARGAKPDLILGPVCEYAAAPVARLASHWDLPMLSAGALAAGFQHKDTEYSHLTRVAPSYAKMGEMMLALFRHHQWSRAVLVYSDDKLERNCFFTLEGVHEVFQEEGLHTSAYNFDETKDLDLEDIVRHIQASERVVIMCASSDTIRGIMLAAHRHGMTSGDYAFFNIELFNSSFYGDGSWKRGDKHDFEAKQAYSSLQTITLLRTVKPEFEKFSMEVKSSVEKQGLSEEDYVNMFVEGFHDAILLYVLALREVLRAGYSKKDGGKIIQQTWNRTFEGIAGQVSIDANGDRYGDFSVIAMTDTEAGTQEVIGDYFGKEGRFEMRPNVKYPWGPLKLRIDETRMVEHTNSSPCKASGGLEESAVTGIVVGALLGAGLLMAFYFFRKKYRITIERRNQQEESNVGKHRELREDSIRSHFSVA
Description: Analogous "competitive displacement" receptor binding assays are considered commonplace in the art for examining specific ligand-receptor interactions.
Assuming these ANP analogs act at one or more ANP receptor sites, then increased receptor affinity should reflect increased biological potency.

Molecule | Ki(app) [nM]
CC[C@H](C)[C@H](NC(=O)[C@H](CCCNC(=N)N)NC(=O)[C@H](CC(=O)O)NC(=O)[C@@H](NC(=O)[C@H](CCCNC(=N)N)NC(=O)Cc1ccc(NC(=O)C(Br)c2ccccc2)cc1)[C@@H](C)CC)C(N)=O (stereo partly drawn) [AP818] (X6-[X1]RIDRI-NH2) | 20.5
CC[C@H](C)[C@@H]1NC(=O)[C@H](CCCNC(=N)N)NC(=O)[C@H](CC(=O)O)NC(=O)[C@H]([C@@H](C)CC)NC(=O)[C@H](CCCNC(=N)N)NC(=O)CNC(=O)CNC(=O)[C@@H](NC(=O)[C@H](CO)NC(=O)[C@H](CO)NC(=O)[C@@H](N)CCCNC(=N)N)CSSC[C@@H](C(=O)N[C@@H](CC(N)=O)C(=O)N[C@@H](CO)C(=O)N[C@@H](Cc2ccccc2)C(=O)N[C@@H](CCCNC(=N)N)C(=O)N[C@@H](Cc2ccc(O)cc2)C(=O)O)NC(=O)CNC(=O)[C@H](CC(C)C)NC(=O)CNC(=O)[C@H](CO)NC(=O)[C@H](CCC(N)=O)NC(=O)[C@H](C)NC(=O)CNC1=O [AP23, R--S--S--C--G--G--R--I--D--R--I--G--A--Q--S--G--L--G--C--N--S--F--R--Y] (H-RSSCGGRIDRIGAQSGLGCNSFRY-OH; disulfide 4-19) | 7.76
CC[C@H](C)[C@H](NC(=O)[C@H](CCCN)NC(=O)[C@H](CC(=O)O)NC(=O)[C@@H](NC(=O)[C@H](CCCNC(=N)N)NC(=O)CNC(=O)CNC(=O)Cc1ccc2ccccc2c1)[C@@H](C)CC)C(N)=O [AP592, (2-NA)--G--G--R--I--D--Orn--I--NH2] ({Acetyl(2-naphthyl)}-GGRID[Orn]I-NH2) | 25.0
YAFGGRIDRIGA-NH2 [AP175, Y--A--F--G--G--R--I--D--R--I--G--A--NH2] | 5.94
CC[C@H](C)[C@H](NC(=O)[C@H](CCCNC(=N)N)NC(=O)[C@H](CC(=O)O)NC(=O)[C@@H](NC(=O)[C@@H](CCCNC(=N)N)NC(=O)CNC(=O)CNC(=O)[C@H](Cc1ccccc1)NC(=O)[C@H](C)N)[C@@H](C)CC)C(=O)NCC(=O)N[C@@H](C)C(N)=O [AP301, A--F--G--G--R^ --I--D--R--I--G--A--NH2] (H-AFGG[dR]IDRIGA-NH2) | > 200
CC[C@H](C)[C@H](NC(=O)[C@H](CCCNC(=N)N)NC(=O)[C@H](CC(=O)O)NC(=O)[C@@H](NC(=O)[C@H](CCCNC(=N)N)NC(=O)CNC(=O)CNC(=O)C(Cc1ccccc1)Cc1ccccc1)[C@@H](C)CC)C(=O)NCC(=O)N[C@@H](C)C(N)=O [AP534, (DBA)--G--G--R-- I--D--R--I--G--A--NH2)] (Dibenzylacetyl-GGRIDRIGA-NH2) | 8.81
CCNC(=O)CNC(=O)[C@@H](NC(=O)[C@H](CCCNC(=N)N)NC(=O)[C@H](CC(=O)O)NC(=O)[C@@H](NC(=O)[C@H](CCCNC(=N)N)NC(=O)CNC(=O)CNC(=O)Cc1ccc2ccccc2c1)[C@@H](C)CC)[C@@H](C)CC [AP524, (2-NA)--G--G--R--I--D--R--I--G--NH-(ethyl)] ({Acetyl(2-naphthyl)}-GGRIDRIG-NHEt) | 2.76
CC[C@H](C)[C@H](NC(=O)[C@H](CCCNC(=N)N)NC(=O)[C@H](CC(=O)O)NC(=O)[C@@H](NC(=O)[C@H](CCCNC(=N)N)NC(=O)CN(C)C(=O)CNC(=O)Cc1ccc2ccccc2c1)[C@@H](C)CC)C(N)=O [AP320, (2-NA)--G--(Sar)--R--I--D--R--I--NH2] ({Acetyl(2-naphthyl)}-G[Sar]RIDRI-NH2) | 47.4
CC[C@H](C)[C@H](NC(=O)[C@H](CCCNC(=N)N)NC(=O)[C@H](CC(=O)O)NC(=O)[C@@H](NC(=O)[C@H](CCCNC(=N)N)NC(=O)C1CCN(C(=O)c2ccc3ccccc3c2)CC1)[C@@H](C)CC)C(N)=O [AP562] ({2Naphthoyl-Inp}-RIDRI-NH2) | 22.4
CC[C@H](C)[C@H](NC(=O)[C@H](CCCNC(=N)N)NC(=O)[C@H](CC(=O)O)NC(=O)[C@@H](NC(=O)[C@H](CCCNC(=N)N)NC(=O)CCCCCNC(=O)COc1ccc2ccccc2c1)[C@@H](C)CC)C(N)=O [AP325, (2-NOA)--NH(CH2)5 CO--R--I--D--R--I--NH2] ({Acetyl(2-naphthyloxy)-Ahx}-RIDRI-NH2) | > 100
CC[C@H](C)[C@H](NC(=O)[C@H](CCCNC(=N)N)NC(=O)[C@H](CC(=O)O)NC(=O)[C@@H](NC[C@H](CCCCN)NC(=O)Cc1ccc(NC(=O)c2ccc3ccccc3c2)cc1)[C@@H](C)CC)C(N)=O [AP809] | 14.7
CC[C@H](C)CNC(=O)[C@H](CCCNC(=N)N)NC(=O)[C@H](CC(=O)O)NC(=O)[C@@H](NC(=O)[C@H](CCCNC(=N)N)NC(=O)Cc1ccc(NC(=O)c2ccc3ccccc3c2)cc1)[C@@H](C)CC [AP811] (2Naphthoyl-[X1]RIDR-{NH(2S-methylbutyl)}) | 2.52
